This note sets out measurements from patent publication US9988407B2, “Prodrugs of prostate specific membrane antigen (PSMA) inhibitor” (THE JOHNS HOPKINS UNIVERSITY, priority 2014, dated 2018).

Data set [1] is described as follows: Metabolic stability in dog liver microsomes. The format is in vitro ADME. To be noted: 10 μM, 37° C. As to the method:
(§1) For metabolic stability, plasma (mouse, dog, monkey and human) and liver microsomes (mouse, dog, monkey and human) were used. For stability, prodrugs (10 μM) were spiked in each matrix and incubated in an orbital shaker at 37° C. At predetermined times (0, 30 and 60 min), 100 μL aliquots of the mixture in triplicate were removed and the reaction quenched by addition of three times the volume of ice cold acetonitrile spiked with the internal standard (losartan 5 μM). The samples were vortexed for 30 s and centrifuged 12000 g for 10 min. 50 μL supernatant diluted with 50 μL water was transferred to a 250 μL polypropylene vial sealed with a Teflon cap. Prodrug disappearance was monitored over time using a liquid chromatography and tandem mass spectrometry (LC/MS/MS) method as described below.
(§2) For LC/MS/MS, prodrugs were separated with Thermo Scientific Accela UPLC system coupled to Accela open autosampler on an Agilent C18 (100×2.1 mm id) UPLC column. The autosampler was temperature controlled and operating at 10° C. The mobile phase used for the chromatographic separation was composed of acetonitrile/water containing 0.1% formic acid and was run at a flow rate of 0.5 mL/minute for 4.5 minutes using gradient elution. The column effluent was monitored using TSQ Vantage triple-quadrupole mass spectrometric detector, equipped with an electrospray probe set in the positive ionization mode. Samples were introduced into the ionization source through a heated nebulized probe (350° C.).
(§3) For quantification of compound remaining, disappearance of prodrugs was measured from ratio of peak areas of analyte to IS. Percentage remaining was calculated in the following manner: […]
On the technique in general: Liver microsomes are a subcellular fraction often used to study metabolism.

Data set [2] can be described thus: In vivo pharmacokinetics in beagle dogs, p.o. To be noted: 10 mg/kg (equiv 2-PMPA), N=1, single dose. As to the method: (by mouth). Blood samples were collected from the jugular vein (˜1 mL) via direct venipuncture, placed into potassium oxalate with sodium fluoride tubes, and maintained on wet ice until processed. Blood samples were centrifuged at a temperature of 4° C., at 3000×g, for 5 minutes. Blood samples were maintained chilled throughout processing. Plasma was collected in tubes and flash frozen. Samples were stored in a freezer set to maintain −60° C. to −80 OC until further analysis. […] The tissues were stored in −20° C. for 1 h and then homogenized. The calibration curve for the tissues was developed using naïve mouse brains from untreated animals as a matrix. For sciatic nerve, the nerves were weighed and homogenized in 50 μL methanol and the calibration curve was developed using naïve sciatic nerves from untreated animals as a matrix. The samples were vortexed and centrifuged. […] Supernatant was dried under a gentle stream of nitrogen at 45° C. and the residue reconstituted with 75 μL of acetonitrile and vortexed. 25 μL of derivatizing agent N-tert-Butyldimethysilyl-N-methyltrifluoro-acetamide (MTBSTFA) was added to microcentrifuge tubes, vortexed, and heated at ˜60 OC for 40 min. At the end of 40 min, the derivatized samples ˜75 μL were transferred to a 250 μL polypropylene vials and were analyzed via LC/MS/MS. […]

Data set [3] in a line: In vivo pharmacokinetics in mice, peroral, bioanalysis method 2 (2-PMPA release). To be noted: rodents and dogs. As to the method: Blood was obtained via cardiac puncture and tissue dissected at 0 min, 15 min, 30 min, 1 h, 2 h, and 4 h post dose (n=3 per time point). Single time point studies were conducted at 30 min (N=3) following dosing. Plasma was harvested from blood by centrifugation. Mean concentration-time data was used for pharmacokinetic (PK) analysis. Non-compartmental-analysis module in WinNonlin® (version 5.3) was used to assess pharmacokinetic parameters. Peak plasma concentrations (Cmax) and time to Cmax (Tmax) were the observed values. Area under the curve (AUC) was calculated by log-linear (p.o.) trapezoidal rule to the end of sample collection (AUClast) and extrapolated to infinity (AUC0-∞) by dividing the last quantifiable concentration by the terminal disposition rate constant (ke). […] The tissues were stored in −20° C. for 1 h and then homogenized. The calibration curve for the tissues was developed using naïve mouse brains from untreated animals as a matrix. For sciatic nerve, the nerves were weighed and homogenized in 50 μL methanol and the calibration curve was developed using naïve sciatic nerves from untreated animals as a matrix. The samples were vortexed and centrifuged. […] Supernatant was dried under a gentle stream of nitrogen at 45° C. and the residue reconstituted with 75 μL of acetonitrile and vortexed. 25 μL of derivatizing agent N-tert-Butyldimethysilyl-N-methyltrifluoro-acetamide (MTBSTFA) was added to microcentrifuge tubes, vortexed, and heated at ˜60 OC for 40 min. At the end of 40 min, the derivatized samples ˜75 μL were transferred to a 250 μL polypropylene vials and were analyzed via LC/MS/MS. Chromatographic analysis was performed using an Accela™ ultra high-performance system consisting of an analytical pump, and an autosampler coupled with TSQ Vantage mass spectrometer (Thermo Fisher Scientific Inc., Waltham Mass.). […] The total run time for each analyte was 5.0 min. Chromatographic analysis will be performed on Accela UPLC.

The nature of data set [4]: Metabolic stability in monkey liver microsomes. The format is in vitro ADME. To be noted: 10 μM, 37° C. As to the method:
as §1, §2, §3

Regarding `CC(C)OC(=O)OCOC(=O)C(CCC(=O)O)CP(=O)(OCOC(=O)OC(C)C)OCOC(=O)OC(C)C` (centres unmarked) [Compound 10], the Percentage remaining was determined as 100% in data set [1] (0 min); 1% in data set [1] (30 min); 0% in data set [1] (60 min); 100% in data set [4] (0 min); 0% in data set [4] (30 min); 0% in data set [4] (60 min). Also, the “Cmax” value in data set [2] is “high Cmax”. Besides, the “oral bioavailability” value in data set [3] is “excellent oral bioavailability”.
